Experimental data as given in patent US11648248B1 (King Abdulaziz University, priority 2022, dated 2023).
In brackets after ≈: the same amount, converted by molar mass. Read-outs that look alike come from different tables or passages of the source.

Experiments:
Type in all cases: cell-based
[1] = test system: Methicillin-resistant Staphylococcus aureus (MRSA NRS-123, USA400); assay: MBC by plating from MIC wells; settings: read-out: MBC MRSA NRS123 (USA400)
Text: (§1) Based upon the initial results obtained, the active compounds were further screened against additional clinical isolates of methicillin-sensitive S. aureus (MSSA), methicillin-resistant S. aureus (MRSA), vancomycin-resistant S. aureus (VRSA), Staphylococcus epidermidis, vancomycin-resistant Enterococcus faecium (VRE), vancomycin-resistant Enterococcus faecalis (VRE) and Streptococcus pneumoniae, as presented in Table 2. Additionally, we examined whether the compounds were bacteriostatic (inhibit bacteria from growing) or bactericidal (kill bacteria) by determining the minimum bactericidal concentration (MBC). The MBC was determined by plating 5 μL from each well where no growth was present (in the MIC plates) onto tryptic soya agar plates and incubating plates at 37° C. for 24 hours. The MBC was categorized as the lowest concentration that generated a 99.9% reduction in bacterial colony-forming units (Table 3).

[2] = test system: Staphylococcus epidermidis (NRS-101); assay: MBC by plating from MIC wells
Text: as §1

[3] = test system: Vancomycin-resistant Staphylococcus aureus (VRSA10); assay: MBC by plating from MIC wells; settings: read-out: MBC VRSA10
Text: as §1

[4] = test system: Methicillin-sensitive Staphylococcus aureus (MSSA NRS-107); assay: MBC by plating from MIC wells; settings: read-out: MBC MSSA NRS-107
Text: as §1

[5] = test system: Listeria monocytogenes ATCC-19111; assay: MBC by plating from MIC wells
Text: as §1

[6] = test system: Methicillin-sensitive Staphylococcus aureus ATCC-6538 (MSSA ATCC-6538); assay: MBC by plating from MIC wells; settings: read-out: MBC MSSA ATCC-6538
Text: as §1

[7] = test system: Vancomycin-resistant Staphylococcus aureus (VRSA12); assay: MBC by plating from MIC wells; settings: read-out: MBC VRSA12
Text: as §1

[8] = test system: Vancomycin-resistant Enterococcus fecalis ATCC-51299 (VRE ATCC-51299); assay: MBC by plating from MIC wells; settings: read-out: MBC VRE ATCC-51299
Text: as §1

[9] = test system: Methicillin-resistant Staphylococcus aureus (MRSA NRS-119); assay: MBC by plating from MIC wells; settings: read-out: MBC MRSA NRS119
Text: as §1

[10] = test system: Cephalosporin-resistant Streptococcus pneumoniae ATCC-700677; assay: MBC by plating from MIC wells
Text: as §1

[11] = test system: Methicillin-resistant Staphylococcus aureus NRS384 (MRSA USA300); assay: MIC broth microdilution, initial screening
Method: The minimum inhibitory concentrations (MICs) of the tested compounds and control drugs (linezolid, vancomycin, gentamicin (antibiotics) and fluconazole and 5-fluorocytosine (5-FC) (antifungal drugs)) were determined using the broth microdilution method, according to guidelines outlined by the Clinical and Laboratory Standards Institute (CLSI, Clinical and Laboratory Standards Institute, Methods for antimicrobial susceptibility testing of anaerobic bacteria; approved standard, M11-A8. 8th ed., 2012; CLSI, Clinical and Laboratory Standards Institute. M27-A3 Reference Method for Broth Dilution Antifungal Susceptibility Testing of Yeasts; Approved Standard—Third Edition, Wayne, Pa., 2008) against clinically-relevant bacterial (methicillin-resistant Staphylococcus aureus (MRSA), Escherichia coli, and C. difficile strains) and fungal (Candida albicans) strains. S. aureus and E. coli were grown aerobically overnight on tryptone soy agar plates at 37° C. C. difficile was grown anaerobically on brain heart infusion supplemented agar at 37° C. for 48 hours. C. albicans was grown aerobically overnight on yeast peptone dextrose (YPD) agar plate at 35° C. Afterwards, a bacterial solution equivalent to 0.5 McFarland standard was prepared and diluted in cation-adjusted Mueller-Hinton broth (CAMHB) (for S. aureus and E. coli) to achieve a bacterial concentration of about 5×10^5 CFU/mL. C. difficile was diluted in brain heart infusion supplemented broth, supplemented with yeast extract, hemin and vitamin K to achieve a bacterial concentration of about 5×10^5 CFU/mL. C. albicans was diluted in Roswell Park Memorial Institute (RPMI 1640) medium with glutamine and without bicarbonate (GIBCO by Life Technologies, Green Island, N.Y., USA) which was buffered to pH 7.0 with 0.165 M of [3-(N-morpholino) propanesulfonic acid] (MOPS) (DOT Scientific Inc., Burton, Mich., USA) to achieve a fungal concentration of about 1.5×10^3 CFU/mL. Compounds and control drugs were added in the first row of the 96-well plates and serially diluted with the corresponding media containing bacteria. Plates were then incubated aerobically at 37° C. for 18-20 hours (for S. aureus and E. coli). C. difficile was incubated anaerobically at 37° C. for 48 hours. C. albicans was incubated aerobically at 37° C. for 24 hours.
The minimum inhibitory concentrations (MICs) of the tested compounds and control drugs; linezolid, vancomycin, gentamicin (antibiotics) and fluconazole and 5-fluorocytosine (5-FC) (antifungal drugs) were determined using the broth microdilution method, according to guidelines outlined by the Clinical and Laboratory Standards Institute (CLSI)^1, 2, 3 against clinically-relevant bacterial (methicillin-resistant Staphylococcus aureus (MRSA), Escherichia coli and Clostridium difficile strains) and fungal (Candida albicans) strain. S. aureus and E. coli were grown aerobically overnight on tryptone soy agar plates at 37° C. C. difficile was grown anaerobically on brain heart infusion supplemented agar at 37° C. for 48 hours. C. albicans was grown aerobically overnight on yeast peptone dextrose (YPD) agar plate at 35° C. Afterwards, a bacterial solution equivalent to 0.5 McFarland standard was prepared and diluted in cation-adjusted Mueller-Hinton broth (CAMHB) (for S. aureus and E. coli) to achieve a bacterial concentration of about 5×10^5 CFU/mL. C. difficile was diluted in brain heart infusion supplemented broth, supplemented with yeast extract, hemin and vitamin K to achieve a bacterial concentration of about 5×10^5 CFU/mL. C. albicans was diluted in Roswell Park Memorial Institute (RPMI 1640) medium with glutamine and without bicarbonate (GIBCO by Life Technologies, Green Island, N.Y., USA) which was buffered to pH 7.0 with 0.165 M of [3-(N-morpholino) propanesulfonic acid]

[12] = NRS101, 99.9% reduction in CFU, read-out: MBC S. epidermidis NRS 101
[13] = ATCC19111, 99.9% reduction in CFU, read-out: MBC L. monocytogenes ATCC-19111
[14] = ATCC700677, 99.9% reduction in CFU, read-out: MBC S. pneumoniae ATCC 700677
[15] = MRSA NRS384 (USA300), broth microdilution, 18-20 hours, read-out: minimum inhibitory concentration (MIC) S. aureus (MRSA USA300)
[16] = read-out: minimum inhibitory concentration (MIC) S. aureus (MRSA USA300), MRSA NRS384 (USA300), broth microdilution, 18-20 hours

CC(=O)NC[C@H]1CN(c2ccc(N3CCOCC3)c(F)c2)C(=O)O1 [Linezolid, reference compound]
MBC ([1]; 99.9% reduction in CFU): 64 µg/mL (≈ 190 µM) | MBC [2, 12]: 8 µg/mL (≈ 23.7 µM) | MBC ([3]; 99.9% reduction in CFU): > 64 µg/mL | MBC ([4]; 99.9% reduction in CFU): 16 µg/mL (≈ 47.4 µM) | MBC [5, 13]: 32 µg/mL (≈ 94.9 µM) | MBC ([6]; 99.9% reduction in CFU): 8 µg/mL (≈ 23.7 µM) | MBC ([7]; 99.9% reduction in CFU): 16 µg/mL (≈ 47.4 µM) | MBC ([8]; 99.9% reduction in CFU): 16 µg/mL (≈ 47.4 µM) | MBC ([9]; 99.9% reduction in CFU): > 64 µg/mL | MBC [10, 14]: 16 µg/mL (≈ 47.4 µM) | MIC [11, 15]: 1 µg/mL (≈ 2.96 µM)

O=C(Nc1cccc(Nc2ccc(Cl)nn2)c1)Nc1ccc(Cl)c(Cl)c1 [MY14, 1-(3-((6-chloropyridazin-3-yl)amino)phenyl)-3-(3,4-dichlorophenyl)urea]
MBC ([1]; 99.9% reduction in CFU): 8 µg/mL (≈ 19.6 µM) | MBC [2, 12]: 64 µg/mL (≈ 157 µM) | MBC ([3]; 99.9% reduction in CFU): 8 µg/mL (≈ 19.6 µM) | MBC ([4]; 99.9% reduction in CFU): 8 µg/mL (≈ 19.6 µM) | MBC [5, 13]: > 64 µg/mL | MBC ([6]; 99.9% reduction in CFU): 32 µg/mL (≈ 78.3 µM) | MBC ([7]; 99.9% reduction in CFU): 32 µg/mL (≈ 78.3 µM) | MBC ([8]; 99.9% reduction in CFU): > 64 µg/mL | MBC ([9]; 99.9% reduction in CFU): 8 µg/mL (≈ 19.6 µM) | MBC [10, 14]: > 64 µg/mL

O=C(Nc1ccc(-c2ccc(=O)[nH]n2)cc1)Nc1ccc(Cl)c(Cl)c1 [MY21, 1-(3,4-dichlorophenyl)-3-(4-(6-oxo-1,6-dihydropyridazin-3-yl)phenyl)urea]
MBC ([1]; 99.9% reduction in CFU): 8 µg/mL (≈ 21.3 µM) | MBC [2, 12]: 4 µg/mL (≈ 10.7 µM) | MBC ([3]; 99.9% reduction in CFU): 2 µg/mL (≈ 5.33 µM) | MBC ([4]; 99.9% reduction in CFU): 4 µg/mL (≈ 10.7 µM) | MBC [5, 13]: 0.5 µg/mL (≈ 1.33 µM) | MBC ([6]; 99.9% reduction in CFU): 4 µg/mL (≈ 10.7 µM) | MBC ([7]; 99.9% reduction in CFU): 8 µg/mL (≈ 21.3 µM) | MBC ([8]; 99.9% reduction in CFU): 16 µg/mL (≈ 42.6 µM) | MBC ([9]; 99.9% reduction in CFU): 1 µg/mL (≈ 2.67 µM) | MBC [10, 14]: 4 µg/mL (≈ 10.7 µM) | MIC [11, 16]: 0.5 to 1 µg/mL (≈ 1.33 to 2.67 µM)

O=C(Nc1ccc(Oc2ccc(=O)[nH]n2)cc1)Nc1ccc(Cl)c(Cl)c1 [MY24, 1-(3,4-dichlorophenyl)-3-(4-((6-oxo-1,6-dihydropyridazin-3-yl)oxy)phenyl)urea]
MBC ([1]; 99.9% reduction in CFU): > 64 µg/mL | MBC [2, 12]: 8 µg/mL (≈ 20.4 µM) | MBC ([3]; 99.9% reduction in CFU): > 64 µg/mL | MBC ([4]; 99.9% reduction in CFU): 16 µg/mL (≈ 40.9 µM) | MBC [5, 13]: 64 µg/mL (≈ 164 µM) | MBC ([6]; 99.9% reduction in CFU): > 64 µg/mL | MBC ([7]; 99.9% reduction in CFU): > 64 µg/mL | MBC ([8]; 99.9% reduction in CFU): > 64 µg/mL | MBC ([9]; 99.9% reduction in CFU): 32 µg/mL (≈ 81.8 µM) | MBC [10, 14]: > 64 µg/mL | MIC [11, 16]: 0.5 to 1 µg/mL (≈ 1.28 to 2.56 µM)

O=C(Nc1ccc(Oc2ccc(=O)[nH]n2)cc1)Nc1ccc(Cl)c(C(F)(F)F)c1 [MY31, 1-(4-chloro-3-(trifluoromethyl)phenyl)-3-(4-((6-oxo-1,6-dihydropyridazin-3-yl)oxy)phenyl)urea]
MBC ([1]; 99.9% reduction in CFU): > 64 µg/mL | MBC [2, 12]: 1 µg/mL (≈ 2.35 µM) | MBC ([3]; 99.9% reduction in CFU): > 64 µg/mL | MBC ([4]; 99.9% reduction in CFU): 2 µg/mL (≈ 4.71 µM) | MBC [5, 13]: > 64 µg/mL | MBC ([6]; 99.9% reduction in CFU): > 64 µg/mL | MBC ([7]; 99.9% reduction in CFU): > 64 µg/mL | MBC ([8]; 99.9% reduction in CFU): > 64 µg/mL | MBC ([9]; 99.9% reduction in CFU): 2 µg/mL (≈ 4.71 µM) | MBC [10, 14]: 2 µg/mL (≈ 4.71 µM) | MIC [11, 16]: 0.5 to 1 µg/mL (≈ 1.18 to 2.35 µM)

CNC(=O)c1cc(Oc2ccc(NC(=O)Nc3ccc(Cl)c(C(F)(F)F)c3)cc2)ccn1 [Sorafenib, reference compound]
MBC ([1]; 99.9% reduction in CFU): > 64 µg/mL | MBC [2, 12]: > 64 µg/mL | MBC ([3]; 99.9% reduction in CFU): > 64 µg/mL | MBC ([4]; 99.9% reduction in CFU): > 64 µg/mL | MBC [5, 13]: > 64 µg/mL | MBC ([6]; 99.9% reduction in CFU): > 64 µg/mL | MBC ([7]; 99.9% reduction in CFU): > 64 µg/mL | MBC ([8]; 99.9% reduction in CFU): > 64 µg/mL | MBC ([9]; 99.9% reduction in CFU): > 64 µg/mL | MBC [10, 14]: > 64 µg/mL | MIC [11, 15]: 4 µg/mL (≈ 8.61 µM)

CN[C@H](CC(C)C)C(=O)N[C@H]1C(=O)N[C@@H](CC(N)=O)C(=O)N[C@H]2C(=O)N[C@H]3C(=O)N[C@H](C(=O)N[C@H](C(=O)O)c4cc(O)cc(O)c4-c4cc3ccc4O)[C@H](O)c3ccc(c(Cl)c3)Oc3cc2cc(c3O[C@@H]2O[C@H](CO)[C@@H](O)[C@H](O)[C@H]2O[C@H]2C[C@](C)(N)[C@H](O)[C@H](C)O2)Oc2ccc(cc2Cl)[C@H]1O [Vancomycin, reference compound]
MBC [1]: 2 µg/mL (≈ 1.38 µM) | MBC ([2]; NRS101, read-out: MBC S. epidermidis NRS 101): 2 µg/mL (≈ 1.38 µM) | MBC [3]: > 64 µg/mL | MBC [4]: 2 µg/mL (≈ 1.38 µM) | MBC ([5]; ATCC19111, read-out: MBC L. monocytogenes ATCC-19111): 2 µg/mL (≈ 1.38 µM) | MBC [6]: 2 µg/mL (≈ 1.38 µM) | MBC [7]: > 64 µg/mL | MBC [8]: 64 µg/mL (≈ 44.2 µM) | MBC [9]: 1 µg/mL (≈ 0.69 µM) | MBC ([10]; ATCC700677, read-out: MBC S. pneumoniae ATCC 700677): 2 µg/mL (≈ 1.38 µM) | MIC ([11]; read-out: minimum inhibitory concentration (MIC) S. aureus (MRSA USA300)): 1 µg/mL (≈ 0.69 µM)
